≈ marks a conversion by molar mass, not a printed value. Read-outs that look alike come from different tables or passages of the source.
Experiments:
Conditions in all cases: Klebsiella pneumoniae
[1] = system: K. pneumoniae NVT1001 strains with carbapenemase plasmids; test: Etest MIC of β-lactams, OmpK35/36 loss, ΔramR and/or carbapenemase (Table 9); assay type: cell-based, Klebsiella pneumoniae
How it was run: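 Cloned resistance genes in pACYC177 or pACYC184 were electroporated into K. pneumoniae NVT1001. MICs were determined by Etest and rounded up to the next two-fold value. Ceftazidime and cefotaxime against the blaOXA-48 construct were also tested by CLSI broth microdilution, with breakpoints from CLSI 2017 (cephalothin CLSI 2015, moxifloxacin EUCAST 2017).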

[2] = system: K. pneumoniae NVT1001 ΔramRΔompK35/36 mutant and its revertants; test: Etest MIC, ΔramRΔompK35/36 mutant and its revertants (Table 7); assay type: cell-based
[3] = system: K. pneumoniae NVT1001 and its ΔompK35/36 and/or ΔramR mutants; test: Etest MIC, OmpK35/36 loss and AcrAB-TolC overexpression (ΔramR) strains (Table 6); assay type: cell-based, Klebsiella pneumoniae
How it was run: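 Ceftazidime and cefotaxime were tested by CLSI broth microdilution on the blaOXA-48 pACYC177 transformant of NVT1001, using CLSI 2017 breakpoints. Parent, porin-deleted (ΔompK35/36) and ΔramR strains were tested by Etest, with values between two-fold dilutions rounded up.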

CCO/N=C(\C(=O)N[C@@H]1C(=O)N2C(C(=O)[O-])=C(Sc3nc(-c4cc[n+](C)cc4)cs3)CS[C@H]12)c1nsc(N)n1 [Ceftaroline]
MIC ([1]; IMP-8 on pACYC177, WT (NVT1001), read-out: MIC): 64 µg/mL | MIC ([1]; IMP-8 on pACYC177, Δ35 (ΔompK35 mutant)): 64 µg/mL | MIC ([1]; IMP-8 on pACYC177, Δ35/36 (ΔompK35/36 mutant)): > 256 µg/mL | MIC ([1]; IMP-8 on pACYC177, Δ36 (ΔompK36 mutant)): 64 µg/mL | MIC ([1]; IMP-8 on pACYC177, ΔramR mutant): 32 µg/mL | MIC ([1]; IMP-8 on pACYC177, ΔramRΔ35 (ΔramRΔompK35 mutant)): 64 µg/mL | MIC ([1]; IMP-8 on pACYC177, ΔramRΔ35/36 (ΔramRΔompK35/36 mutant)): 128 µg/mL | MIC ([1]; IMP-8 on pACYC177, ΔramRΔ36 (ΔramRΔompK36 mutant)): 64 µg/mL | MIC ([1]; KPC-2 on pACYC177, WT (NVT1001), read-out: MIC): 256 µg/mL | MIC ([1]; KPC-2 on pACYC177, Δ35 (ΔompK35 mutant)): > 256 µg/mL | MIC ([1]; KPC-2 on pACYC177, Δ35/36 (ΔompK35/36 mutant)): > 256 µg/mL | MIC ([1]; KPC-2 on pACYC177, Δ36 (ΔompK36 mutant)): > 256 µg/mL | MIC ([1]; KPC-2 on pACYC177, ΔramR mutant): > 256 µg/mL | MIC ([1]; KPC-2 on pACYC177, ΔramRΔ35 (ΔramRΔompK35 mutant)): > 256 µg/mL | MIC ([1]; KPC-2 on pACYC177, ΔramRΔ35/36 (ΔramRΔompK35/36 mutant)): > 256 µg/mL | MIC ([1]; KPC-2 on pACYC177, ΔramRΔ36 (ΔramRΔompK36 mutant)): > 256 µg/mL | MIC ([1]; KPC-3 on pACYC177, WT (NVT1001), read-out: MIC): 256 µg/mL | MIC ([1]; KPC-3 on pACYC177, Δ35 (ΔompK35 mutant)): 256 µg/mL | MIC ([1]; KPC-3 on pACYC177, Δ35/36 (ΔompK35/36 mutant)): > 256 µg/mL | MIC ([1]; KPC-3 on pACYC177, Δ36 (ΔompK36 mutant)): > 256 µg/mL | MIC ([1]; KPC-3 on pACYC177, ΔramR mutant): 256 µg/mL | MIC ([1]; KPC-3 on pACYC177, ΔramRΔ35 (ΔramRΔompK35 mutant)): 256 µg/mL | MIC ([1]; KPC-3 on pACYC177, ΔramRΔ35/36 (ΔramRΔompK35/36 mutant)): > 256 µg/mL | MIC ([1]; KPC-3 on pACYC177, ΔramRΔ36 (ΔramRΔompK36 mutant)): > 256 µg/mL | MIC ([1]; NDM-1 on pACYC177, WT (NVT1001), read-out: MIC): > 256 µg/mL | MIC ([1]; NDM-1 on pACYC177, Δ35 (ΔompK35 mutant)): > 256 µg/mL | MIC ([1]; NDM-1 on pACYC177, Δ35/36 (ΔompK35/36 mutant)): > 256 µg/mL | MIC ([1]; NDM-1 on pACYC177, Δ36 (ΔompK36 mutant)): > 256 µg/mL | MIC ([1]; NDM-1 on pACYC177, ΔramR mutant): > 256 µg/mL | MIC ([1]; NDM-1 on pACYC177, ΔramRΔ35 (ΔramRΔompK35 mutant)): > 256 µg/mL | MIC ([1]; NDM-1 on pACYC177, ΔramRΔ35/36 (ΔramRΔompK35/36 mutant)): > 256 µg/mL | MIC ([1]; NDM-1 on pACYC177, ΔramRΔ36 (ΔramRΔompK36 mutant)): > 256 µg/mL | MIC ([1]; OXA-48 on pACYC177, WT (NVT1001), read-out: MIC): 8 µg/mL | MIC ([1]; OXA-48 on pACYC177, Δ35 (ΔompK35 mutant)): 8 µg/mL | MIC ([1]; OXA-48 on pACYC177, Δ35/36 (ΔompK35/36 mutant)): 32 µg/mL | MIC ([1]; OXA-48 on pACYC177, Δ36 (ΔompK36 mutant)): 8 µg/mL | MIC ([1]; OXA-48 on pACYC177, ΔramR mutant): 8 µg/mL | MIC ([1]; OXA-48 on pACYC177, ΔramRΔ35 (ΔramRΔompK35 mutant)): 8 µg/mL | MIC ([1]; OXA-48 on pACYC177, ΔramRΔ35/36 (ΔramRΔompK35/36 mutant)): 16 µg/mL | MIC ([1]; OXA-48 on pACYC177, ΔramRΔ36 (ΔramRΔompK36 mutant)): 8 µg/mL | MIC ([1]; VIM-1 on pACYC177, WT (NVT1001), read-out: MIC): 256 µg/mL | MIC ([1]; VIM-1 on pACYC177, Δ35 (ΔompK35 mutant)): > 256 µg/mL | MIC ([1]; VIM-1 on pACYC177, Δ35/36 (ΔompK35/36 mutant)): > 256 µg/mL | MIC ([1]; VIM-1 on pACYC177, Δ36 (ΔompK36 mutant)): > 256 µg/mL | MIC ([1]; VIM-1 on pACYC177, ΔramR mutant): > 256 µg/mL | MIC ([1]; VIM-1 on pACYC177, ΔramRΔ35 (ΔramRΔompK35 mutant)): > 256 µg/mL | MIC ([1]; VIM-1 on pACYC177, ΔramRΔ35/36 (ΔramRΔompK35/36 mutant)): > 256 µg/mL | MIC ([1]; VIM-1 on pACYC177, ΔramRΔ36 (ΔramRΔompK36 mutant)): > 256 µg/mL | MIC ([1]; no supplemental plasmid, WT (NVT1001), read-out: MIC): 0.25 µg/mL | MIC ([1]; no supplemental plasmid, Δ35 (ΔompK35 mutant)): 0.25 µg/mL | MIC ([1]; no supplemental plasmid, Δ35/36 (ΔompK35/36 mutant)): 1 µg/mL | MIC ([1]; no supplemental plasmid, Δ36 (ΔompK36 mutant)): 0.5 µg/mL | MIC ([1]; no supplemental plasmid, ΔramR mutant): 1 µg/mL | MIC ([1]; no supplemental plasmid, ΔramRΔ35 (ΔramRΔompK35 mutant)): 1 µg/mL | MIC ([1]; no supplemental plasmid, ΔramRΔ35/36 (ΔramRΔompK35/36 mutant)): 4 µg/mL | MIC ([1]; no supplemental plasmid, ΔramRΔ36 (ΔramRΔompK36 mutant)): 4 µg/mL | MIC ([2]; ΔramRΔompK35/36::ompK35/36 revertant): 1 µg/mL | MIC ([2]; ΔramRΔompK35/36::ompK35 revertant): 4 µg/mL | MIC ([2]; ΔramRΔompK35/36::ompK36 revertant): 1 µg/mL | MIC ([2]; ΔramRΔompK35/36::ramR revertant): 1 µg/mL | MIC ([2]; ΔramRΔompK35/36::ramR::ompK35/36 revertant): 0.25 µg/mL | MIC ([2]; ΔramRΔompK35/36::ramR::ompK35 revertant): 0.5 µg/mL | MIC ([2]; ΔramRΔompK35/36::ramR::ompK36 revertant): 0.5 µg/mL | MIC ([2]; ΔramRΔompK35/36 mutant): 4 µg/mL | MIC ([3]; WT, NVT1001, read-out: MIC): 0.25 µg/mL (≈ 0.413 µM) | MIC ([3]; Δ35, ΔompK35 mutant): 0.25 µg/mL (≈ 0.413 µM) | MIC ([3]; Δ35/36, ΔompK35/36 mutant): 1 µg/mL (≈ 1.65 µM) | MIC ([3]; Δ36, ΔompK36 mutant): 0.5 µg/mL (≈ 0.827 µM) | MIC ([3]; ΔramR mutant): 1 µg/mL (≈ 1.65 µM) | MIC ([3]; ΔramRΔ35, ΔramRΔompK35 mutant): 1 µg/mL (≈ 1.65 µM) | MIC ([3]; ΔramRΔ35/36, ΔramRΔompK35/36 mutant): 4 µg/mL (≈ 6.61 µM) | MIC ([3]; ΔramRΔ36, ΔramRΔompK36 mutant): 4 µg/mL (≈ 6.61 µM)

— US10760110B2, “Antibiotic testing and screening system” (priority 2017, dated 2020)
